This note sets out measurements from ChEMBL document CHEMBL5223163, “In the Quest for Potent and Selective Malic Enzyme 3 Inhibitors for the Treatment of Pancreatic Ductal Adenocarcinoma” (ACS Med Chem Lett, 2023).

Molecules are shown by their SMILES. Some results are limits rather than exact numbers.

The target of data set [1] is NAD-dependent malic enzyme, mitochondrial (Homo sapiens, UniProt P23368). Put plainly: Inhibition of His-tagged human recombinant full length ME2 using L-malate and beta-NAD+ as substrate preincubated with enzyme for 5 mins followed by beta-NAD+ challenge and incubated under shaking for 5 mins followed by incubation for 2 hrs without shaking by resorufin dye based fluorescence analysis.
Chain of NAD-dependent malic enzyme, mitochondrial (P23368 whole entry): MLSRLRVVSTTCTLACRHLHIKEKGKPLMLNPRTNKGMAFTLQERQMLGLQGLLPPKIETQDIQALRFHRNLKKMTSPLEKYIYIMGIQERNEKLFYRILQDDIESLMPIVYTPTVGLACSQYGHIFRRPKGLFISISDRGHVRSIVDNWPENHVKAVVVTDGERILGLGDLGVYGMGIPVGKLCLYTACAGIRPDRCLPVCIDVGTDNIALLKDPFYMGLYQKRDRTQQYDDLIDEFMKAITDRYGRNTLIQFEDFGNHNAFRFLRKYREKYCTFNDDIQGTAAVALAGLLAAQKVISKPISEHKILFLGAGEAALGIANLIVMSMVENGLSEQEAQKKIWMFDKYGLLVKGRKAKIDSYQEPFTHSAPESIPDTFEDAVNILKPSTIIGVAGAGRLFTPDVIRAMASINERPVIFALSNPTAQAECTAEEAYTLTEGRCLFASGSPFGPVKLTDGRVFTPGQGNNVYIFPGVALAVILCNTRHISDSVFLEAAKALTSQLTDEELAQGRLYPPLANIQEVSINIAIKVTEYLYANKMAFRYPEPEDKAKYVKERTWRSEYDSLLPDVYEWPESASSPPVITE

The target in data set [2] is T1, NADP-dependent malic enzyme, mitochondrial (Homo sapiens, UniProt Q16798).
T1 sequence (Q16798 whole entry): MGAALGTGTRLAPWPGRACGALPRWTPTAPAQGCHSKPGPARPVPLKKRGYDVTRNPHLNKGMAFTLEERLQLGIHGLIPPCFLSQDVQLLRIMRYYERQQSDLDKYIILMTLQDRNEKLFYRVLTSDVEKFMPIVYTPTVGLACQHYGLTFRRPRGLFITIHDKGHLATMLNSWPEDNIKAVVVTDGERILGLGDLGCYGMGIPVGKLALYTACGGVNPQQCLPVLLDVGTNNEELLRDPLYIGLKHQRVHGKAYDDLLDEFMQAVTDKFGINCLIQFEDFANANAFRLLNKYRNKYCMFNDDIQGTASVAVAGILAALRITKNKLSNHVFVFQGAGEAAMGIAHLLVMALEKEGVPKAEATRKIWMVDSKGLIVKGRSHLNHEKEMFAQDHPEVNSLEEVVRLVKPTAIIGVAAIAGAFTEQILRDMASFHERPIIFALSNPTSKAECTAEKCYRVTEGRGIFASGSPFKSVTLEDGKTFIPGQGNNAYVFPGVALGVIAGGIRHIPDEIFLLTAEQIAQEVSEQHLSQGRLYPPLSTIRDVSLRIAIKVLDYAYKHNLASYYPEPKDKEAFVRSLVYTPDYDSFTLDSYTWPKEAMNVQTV
Description: (§1) Inhibition of His-tagged human recombinant ME3 (26 to 604 residues) using L-malate and beta-NADP+ as substrate preincubated with enzyme for 5 mins followed by beta-NADP+ challenge and incubated under shaking for 5 mins followed by incubation for 3 hrs without shaking by resorufin dye based fluorescence analysis

Data set [3] deals with T2, NADP-dependent malic enzyme (Homo sapiens, UniProt P48163).
T2 sequence (P48163 whole entry): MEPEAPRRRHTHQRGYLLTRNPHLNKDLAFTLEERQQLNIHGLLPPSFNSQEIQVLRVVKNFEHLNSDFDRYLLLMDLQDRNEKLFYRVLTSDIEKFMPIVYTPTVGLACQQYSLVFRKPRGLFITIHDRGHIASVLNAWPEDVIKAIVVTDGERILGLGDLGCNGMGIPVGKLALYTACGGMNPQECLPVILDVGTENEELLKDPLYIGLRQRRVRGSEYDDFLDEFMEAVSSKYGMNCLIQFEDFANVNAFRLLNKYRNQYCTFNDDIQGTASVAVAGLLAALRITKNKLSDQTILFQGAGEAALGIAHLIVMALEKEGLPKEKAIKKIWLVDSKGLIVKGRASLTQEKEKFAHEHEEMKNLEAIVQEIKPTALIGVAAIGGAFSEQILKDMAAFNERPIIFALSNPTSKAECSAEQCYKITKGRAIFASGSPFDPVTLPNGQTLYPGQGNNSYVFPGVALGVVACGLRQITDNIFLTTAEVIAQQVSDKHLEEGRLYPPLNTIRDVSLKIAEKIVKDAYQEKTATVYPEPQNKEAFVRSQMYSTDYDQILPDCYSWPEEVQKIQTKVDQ
Put plainly: Inhibition of His-tagged human recombinant full length ME1 using L-malate and beta-NADP+ as substrate preincubated with enzyme for 5 mins followed by beta-NADP+ challenge and incubated under shaking for 5 mins followed by incubation for 2 hrs without shaking by resorufin dye based fluorescence analysis.

The nature of data set [4]: Cytotoxicity against human HCE-T cells assessed as inhibition of cell growth. It counts as toxicity, cell-based.
The test system of the next data set is HUVEC. The experiment in a line: Cytotoxicity against human HUVEC cells assessed as inhibition of cell growth. It counts as toxicity, cell-based.
Data set [5] concerns BXPC-3. Put plainly: cells. As to conditions: Homo sapiens, BXPC-3, 72 h, read-out: INH; call rule not given here.
Data set [6] addresses T3, NADP-dependent malic enzyme, mitochondrial (Homo sapiens) (UniProt Q16798).
T3 sequence (whole entry): T1 sequence (Q16798 whole entry)
As to conditions: BXPC-3, Lysates, dose 100.0 µM, time 2.0 hrs.

The target of data set [7] is T3, NADP-dependent malic enzyme, mitochondrial (Homo sapiens). As to conditions: BXPC-3, dose 100.0 µM, time 24.0 hrs.
Data set [8] can be described thus: Selectivity for SMAD4/ME2-null human BXPC-3 cells over human HCE-T cells.
In data set [9] the test system is BXPC-3. Put plainly: cells. To be noted: Homo sapiens, BXPC-3, 72 h.
Description: Antiproliferative activity against SMAD4/ME2-null human BXPC-3 cells assessed as inhibition of cell growth incubated for 72 hrs by CellTiter-Glo luminescence assay
Data set [10] concerns the target T1, NADP-dependent malic enzyme, mitochondrial. The source holds these as a separate data set.
Description: as §1
Data set [11] in a line: Lipophilicity, log P of the compound. The data set is classed as physicochemical. As to conditions: octanol/water.
For data set [12], the system named is BXPC-3. The experiment in a line: Antiproliferative activity against SMAD4/ME2-null human BXPC-3 cells assessed as inhibition of cell growth at 1 uM incubated for 72 hrs by CellTiter-Glo luminescence assay. It counts as functional.
Data set [13] deals with T3, NADP-dependent malic enzyme, mitochondrial (Homo sapiens). As to conditions: dose 0.1 µM, time 190.0 min.

With `O=C(CCc1ccccc1)N1CCN(c2ccc(O)cn2)CC1`, the IC50 in data set [1] (read-out: IC50) was 1.72 µM; in [2], 0.23 µM; in [3] (read-out: IC50), 1.5 µM; in [4], more than 30 µM; in the data set on BXPC-3 [9] it was 5.1 µM. Also, in the data set on HUVEC, the Activity result is “Non-Toxic”. For the same compound, the inhibition at 10 µM in the data set on BXPC-3 [5] was 90%. For the same compound, the ΔTm in [6] came out at 7 °C; in data set [7] it was 4.9 °C. Besides, in [8], the Selectivity ratio is 5.
For the compound `O=C(CCc1ccccc1)N1CCN(c2ncc(O)cn2)CC1`, the IC50 entry in data set [1], in data set [3] and in data set [10] was “Not Active” each time.
Regarding `CC(C)(CC(=O)N1CCN(c2ccc(O)cc2)CC1)c1ccccc1`, the IC50 is 0.27 µM in data set [1] (read-out: IC50); 0.12 µM in data set [2]; 0.15 µM in data set [3] (read-out: IC50); more than 30 µM in data set [4]; 5.2 µM in the data set with BXPC-3 [9]. Besides, the Activity entry in the data set on HUVEC was “Non-Toxic”. For the same compound, in the data set with BXPC-3 [5], the inhibition at 10 µM stood at 85%. In addition, in [8], the Selectivity ratio worked out at 5.
Turning to `CC(C)(CC(=O)N1CCN(c2ccc(O)cn2)CC1)c1ccccc1`, the IC50 in [1] (read-out: IC50) is 1.37 µM; in [2], 0.15 µM; in [3] (read-out: IC50), 2.37 µM; in data set [4] it was more than 30 µM; in the data set on BXPC-3 [9] it was 3.5 µM. Moreover, the inhibition at 10 µM in the data set with BXPC-3 [5] was found to be 99%. The logP in data set [11] amounted to 3.41. Besides, the Selectivity ratio in data set [8] is 5.
Turning to `O=C(Cc1ccccc1)N1CCN(c2ccc(O)nn2)CC1`, the IC50 entry in data set [1], in data set [3] and in data set [10] was “Not Active” each time.
As to `O=C(Cc1ccccc1)N1CCN(c2ccc(O)nc2)CC1`, the IC50 entry in data set [1], in data set [3] and in data set [10] was “Not Active” each time.
Take `O=C(C1CC1)N1CCN(c2ccc(O)cn2)CC1`: the inhibition at 10 µM in the data set with BXPC-3 [5] was found to be 10%. Also, the inhibition at 1 µM with BXPC-3 [12] stood at 0%. The compound also had an inhibition in [13] of 14%.
